Assay results published in ChEMBL document CHEMBL1201862, “PubChem BioAssay data set” (2004).
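Interpolation was linear, between the two tested concentrations surrounding the appropriate level; five concentrations were tested over 48 hours in 96-well plates. Abbreviation: GI50, concentration required for 50% inhibition of growth.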 Active and inactive are the calls of the source. Rule as the data show it: active = GI50 up to about 1.1 µM and inactive = higher.

How the values were obtained:
Assay in all cases: NCI tumour cell line growth inhibition, 48 h
786-0 = tested on: 786-0
A549 = tested on: A549
ACHN = tested on: ACHN
BT-549 = tested on: BT-549
CCRF-CEM = tested on: CCRF-CEM
COLO 205 = tested on: COLO 205
DU-145 = tested on: DU-145
EKVX = tested on: EKVX
HCC 2998 = tested on: HCC 2998
HCT-116 = tested on: HCT-116
HCT-15 = tested on: HCT-15
HL-60 = tested on: HL-60
HOP-62 = tested on: HOP-62
HT-29 = tested on: HT-29
Hs-578T = tested on: Hs-578T
IGROV-1 = tested on: IGROV-1
K562 = tested on: K562
KM12 = tested on: KM12
LOX IMVI = tested on: LOX IMVI
M14 = tested on: M14
MCF7 = tested on: MCF7
MDA-MB-231 = tested on: MDA-MB-231
MDA-MB-435 = tested on: MDA-MB-435
MDA-N = tested on: MDA-N
MOLT-4 = tested on: MOLT-4
Malme-3M = tested on: Malme-3M
NCI-H226 = tested on: NCI-H226
NCI-H23 = tested on: NCI-H23
NCI-H460 = tested on: NCI-H460
NCI-H522 = tested on: NCI-H522
NCI/ADR-RES = tested on: NCI/ADR-RES
OVCAR-3 = tested on: OVCAR-3
OVCAR-4 = tested on: OVCAR-4
OVCAR-5 = tested on: OVCAR-5
OVCAR-8 = tested on: OVCAR-8
PC-3 = tested on: PC-3
RPMI-8226 = tested on: RPMI-8226
RXF 393 = tested on: RXF 393
SF-268 = tested on: SF-268
SF-295 = tested on: SF-295
SF-539 = tested on: SF-539
SK-MEL-28 = tested on: SK-MEL-28
SK-MEL-2 = tested on: SK-MEL-2
SK-MEL-5 = tested on: SK-MEL-5
SK-OV-3 = tested on: SK-OV-3
SN12C = tested on: SN12C
SNB-19 = tested on: SNB-19
SNB-75 = tested on: SNB-75
SR = tested on: SR
SW-620 = tested on: SW-620
T47D = tested on: T47D
TK-10 = tested on: TK-10
U-251 = tested on: U-251
UACC-257 = tested on: UACC-257
UACC-62 = tested on: UACC-62
UO-31 = tested on: UO-31
A498 = tested on: A498
CAKI-1 = tested on: CAKI-1
HOP-92 = tested on: HOP-92

Q: Which results are given for `CC1C(=O)C23OC[C@@]1(C)C1(O)CC[C@@H](C)[C@]21CC3=O` (stereo partly drawn)?
A: GI50 (786-0): > 100 µM (inactive); GI50 (A549): > 100 µM (inactive); GI50 (ACHN): > 100 µM (inactive); GI50 (BT-549): > 100 µM (inactive); GI50 (CCRF-CEM): > 100 µM (inactive); GI50 (COLO 205): > 100 µM (inactive); GI50 (DU-145): > 100 µM (inactive); GI50 (EKVX): > 100 µM (inactive); GI50 (HCC 2998): > 100 µM (inactive); GI50 (HCT-116): > 100 µM (inactive); GI50 (HCT-15): > 100 µM; GI50 (HL-60): > 100 µM (inactive); GI50 (HOP-62): > 100 µM (inactive); GI50 (HT-29): > 100 µM (inactive); GI50 (Hs-578T): > 100 µM (inactive); GI50 (IGROV-1): > 100 µM (inactive); GI50 (K562): > 100 µM (inactive); GI50 (KM12): > 100 µM (inactive); GI50 (LOX IMVI): > 100 µM (inactive); GI50 (M14): > 100 µM (inactive); GI50 (MCF7): > 100 µM (inactive); GI50 (MDA-MB-231): > 100 µM (inactive); GI50 (MDA-MB-435): > 100 µM (inactive); GI50 (MDA-N): > 100 µM (inactive); GI50 (MOLT-4): > 100 µM (inactive); GI50 (Malme-3M): > 100 µM (inactive); GI50 (NCI-H226): > 100 µM (inactive); GI50 (NCI-H23): > 100 µM (inactive); GI50 (NCI-H460): > 100 µM (inactive); GI50 (NCI-H522): > 100 µM (inactive); GI50 (NCI/ADR-RES): > 100 µM (inactive); GI50 (OVCAR-3): > 100 µM (inactive); GI50 (OVCAR-4): > 100 µM (inactive); GI50 (OVCAR-5): > 100 µM (inactive); GI50 (OVCAR-8): > 100 µM (inactive); GI50 (PC-3): > 100 µM (inactive); GI50 (RPMI-8226): > 100 µM (inactive); GI50 (RXF 393): > 100 µM (inactive); GI50 (SF-268): > 100 µM (inactive); GI50 (SF-295): > 100 µM (inactive); GI50 (SF-539): > 100 µM (inactive); GI50 (SK-MEL-28): > 100 µM (inactive); GI50 (SK-MEL-2): > 100 µM (inactive); GI50 (SK-MEL-5): > 100 µM (inactive); GI50 (SK-OV-3): > 100 µM (inactive); GI50 (SN12C): > 100 µM (inactive); GI50 (SNB-19): > 100 µM (inactive); GI50 (SNB-75): > 100 µM (inactive); GI50 (SR): > 100 µM (inactive); GI50 (SW-620): > 100 µM (inactive); GI50 (T47D): > 100 µM (inactive); GI50 (TK-10): > 100 µM (inactive); GI50 (U-251): > 100 µM (inactive); GI50 (UACC-257): > 100 µM (inactive); GI50 (UACC-62): > 100 µM (inactive); GI50 (UO-31): > 100 µM (inactive)

Q: For `Oc1ccc2ccccc2c1CN(Cc1c(O)ccc2ccccc12)C1CCCCC1`, which GI50 (786-0) is on record?
A: The GI50 was 15.6 µM (inactive).

Q: What about the GI50 (A498) of the same molecule?
A: Its GI50 is 27 µM (inactive).

Q: And the GI50 (A549)?
A: Its GI50 is 19.4 µM (inactive).

Q: What about the GI50 (ACHN) of the same molecule?
A: Its GI50 is 18.3 µM (inactive).

Q: And the GI50 (BT-549)?
A: Its GI50 is 19.8 µM (inactive).

Q: And the GI50 (CAKI-1)?
A: The GI50 was 16.6 µM (inactive).

Q: And the GI50 (CCRF-CEM)?
A: Its GI50 is 27.3 µM (inactive).

Q: What about the GI50 (COLO 205) of the same molecule?
A: Its GI50 is 16.1 µM (inactive).

Q: What about the GI50 (DU-145) of the same molecule?
A: Its GI50 is 20.3 µM (inactive).

Q: And the GI50 (EKVX)?
A: The GI50 was 15.4 µM (inactive).

Q: What about the GI50 (HCC 2998) of the same molecule?
A: The GI50 was 14.6 µM (inactive).

Q: What about the GI50 (HCT-116) of the same molecule?
A: Its GI50 is 15.8 µM (inactive).

Q: And the GI50 (HCT-15)?
A: The GI50 was 20.6 µM.

Q: And the GI50 (HOP-62)?
A: Its GI50 is 29.7 µM (inactive).

Q: And the GI50 (HOP-92)?
A: Its GI50 is 18 µM (inactive).

Q: What about the GI50 (HT-29) of the same molecule?
A: The GI50 was 21.6 µM (inactive).

Q: What about the GI50 (Hs-578T) of the same molecule?
A: The GI50 was 26.4 µM (inactive).

Q: And the GI50 (IGROV-1)?
A: The GI50 was 11.8 µM (inactive).

Q: And the GI50 (K562)?
A: Its GI50 is 19.5 µM (inactive).

Q: What about the GI50 (KM12) of the same molecule?
A: Its GI50 is 28.2 µM (inactive).

Q: What about the GI50 (LOX IMVI) of the same molecule?
A: The GI50 was 15 µM (inactive).

Q: And the GI50 (M14)?
A: The GI50 was 15.2 µM (inactive).

Q: And the GI50 (MCF7)?
A: Its GI50 is 15.5 µM (inactive).

Q: And the GI50 (MDA-MB-231)?
A: The GI50 was 18.5 µM (inactive).

Q: And the GI50 (MDA-MB-435)?
A: Its GI50 is 19.2 µM (inactive).

Q: And the GI50 (MDA-N)?
A: Its GI50 is 15.4 µM (inactive).

Q: And the GI50 (MOLT-4)?
A: Its GI50 is 16.6 µM (inactive).

Q: And the GI50 (Malme-3M)?
A: Its GI50 is 15.8 µM (inactive).

Q: What about the GI50 (NCI-H23) of the same molecule?
A: The GI50 was 17.1 µM (inactive).

Q: What about the GI50 (NCI-H460) of the same molecule?
A: The GI50 was 20 µM (inactive).

Q: What about the GI50 (NCI-H522) of the same molecule?
A: Its GI50 is 13.4 µM (inactive).

Q: And the GI50 (NCI/ADR-RES)?
A: The GI50 was 23.5 µM (inactive).

Q: And the GI50 (OVCAR-3)?
A: Its GI50 is 19.1 µM (inactive).

Q: What about the GI50 (OVCAR-4) of the same molecule?
A: Its GI50 is 18.7 µM (inactive).

Q: And the GI50 (OVCAR-5)?
A: The GI50 was 41.9 µM (inactive).

Q: What about the GI50 (OVCAR-8) of the same molecule?
A: Its GI50 is 21.3 µM (inactive).

Q: What about the GI50 (PC-3) of the same molecule?
A: The GI50 was 17 µM (inactive).

Q: And the GI50 (RPMI-8226)?
A: The GI50 was 25.1 µM (inactive).

Q: And the GI50 (RXF 393)?
A: Its GI50 is 18.2 µM (inactive).

Q: And the GI50 (SF-268)?
A: Its GI50 is 14.1 µM (inactive).

Q: And the GI50 (SF-295)?
A: Its GI50 is 37 µM (inactive).

Q: What about the GI50 (SF-539) of the same molecule?
A: The GI50 was 16 µM (inactive).

Q: And the GI50 (SK-MEL-28)?
A: Its GI50 is 22.8 µM (inactive).

Q: And the GI50 (SK-MEL-2)?
A: The GI50 was 23.3 µM (inactive).

Q: And the GI50 (SK-MEL-5)?
A: Its GI50 is 14.9 µM (inactive).

Q: What about the GI50 (SK-OV-3) of the same molecule?
A: The GI50 was 42 µM (inactive).

Q: And the GI50 (SN12C)?
A: The GI50 was 14.4 µM (inactive).

Q: What about the GI50 (SNB-19) of the same molecule?
A: The GI50 was 28.2 µM (inactive).

Q: What about the GI50 (SNB-75) of the same molecule?
A: The GI50 was 21.8 µM (inactive).

Q: And the GI50 (SR)?
A: Its GI50 is 21.3 µM (inactive).

Q: And the GI50 (SW-620)?
A: The GI50 was 20.1 µM (inactive).

Q: What about the GI50 (T47D) of the same molecule?
A: Its GI50 is 31.9 µM (inactive).

Q: And the GI50 (TK-10)?
A: Its GI50 is 17.3 µM (inactive).

Q: And the GI50 (U-251)?
A: Its GI50 is 20.2 µM (inactive).

Q: What about the GI50 (UACC-257) of the same molecule?
A: The GI50 was 15.3 µM (inactive).

Q: And the GI50 (UACC-62)?
A: The GI50 was 16.8 µM (inactive).

Q: What about the GI50 (UO-31) of the same molecule?
A: The GI50 was 17.1 µM (inactive).
